Assay results reported in US9138434B2, “Octahydrothienoquinoline derivative, pharmaceutical composition comprising derivative, and use of these” (KISSEI PHARMACEUTICAL CO., LTD., priority 2011, dated 2015).
Like-named read-outs stand apart in the source and are kept apart here.

How the values were obtained:
[1] = target: T1, human serotonin 5-HT2B receptor (Homo sapiens, UniProt P41595); assay: Stimulating activities on human serotonin 5-HT2B receptor, intracellular calcium in forced expression HEK293 cells; format: cell-based
T1 construct: expressed in transfected cells; host or cells: HEK293, transient transfection (Lipofectamine 2000)
Procedure: Identification Test of Stimulating Activities on Human Serotonin 5-HT2B Receptor
The PCR was performed using forward primer depicted as sequence ID No. 4, reverse primer depicted as sequence ID No. 5 and KOD-Plus-Ver.2 (TOYOBO) as template of human brain hippocampus cDNA (Clontech). The PCR product was inserted into a plasmid (pcDNA3.1/V5-His-Topo (registered mark)). The PCR product-inserted plasmid was transformed in E. coli (One Shot TOP10 Chemically Competent). That E. coli was incubated in LB agar medium contained 50 μg/mL ampicillin for a day. A selected colony was incubated in LB medium contained 50 μg/mL ampicillin and PCR product-inserted plasmid was purified with QIAprep Spin Miniprep Kit (QIAGEN).
Mostly confluent HEK293 cells were washed with PBS, followed by exfoliation with 0.05% trypsin-EDTA and the cells were suspended in D-MEM liquid medium (phenol red-free, low glucose, pyruvic acid were contained) containing fetal bovine serum (final concentration: 10%) and GlutaMax (registered mark)I (final concentration: 2 mM). The suspension was scattered at 5×10^4 cells/100 L/well on poly-D-lysine-coated 96-well microplate (BD BioCoat (registered mark)). The scattered cells were cultured in 5% CO2 incubator at 37° C. Human serotonin 5-HT2B receptor expression plasmid was transfected in that cells according to the procedure seeing below.
Human serotonin 5-HT2B receptor expression plasmid and Lipofectamine (registered mark) 2000 (Invitrogen) were diluted to 0.008 g/L and 0.016 g/L each other with OPTI-MEM (registered mark)I Reduced-Serum Medium and incubated at room temperature. After incubation, the human serotonin 5-HT2B receptor exoression plasmid-diluted liquid and Lipofectamine (registered mark) 2000-diluted liquid were mixed at an equal volume and incubated at room temperature to form a complex. The complex was dispensed at 50 μL/well on the cells prepared above. The cells were incubated in 5% CO2 incubator at 37° C. for 2 days. After incubation, the cells were used as human serotonin 5-HT2B receptor forced expression cells for measurement of intracellular calcium concentration.
3) Determination of Stimulating Activities of Human Serotonin 5-HT2B Receptor
The stimulating activities of human serotonin 5-HT2B receptor was determined by measuring of intracellular calcium concentration. The 30 mM dimethyl sulfoxide (DMSO) solution contained test compounds or serotonin hydrochloride (Sigma) as positive control, was diluted with assay buffer ((HBSS), 20 mM HEPES, 1.3 mM calcium chloride, 0.5 mM magnesium chloride and 0.4 mM magnesium sulfate were contained, pH7.4) to appropriate concentration.
The forced expression cells were washed with assay buffer, and 100 μL/well of fluorescent calcium indicator (Fluo-4 NW Calcium Assay Kit) was added and incubated in 5% CO2 incubator at 37° C. After incubation, 50 μL/well of each test compound was added, and the concentration of intracellular calcium was measured as fluorescent signal with FlexStation (registered mark) II (Molecular Devices). The data was analyzed by nonlinear regression and sigmoidal dose-response curve fitting using GraphPad PRISM 4.0, and values of EC50 (concentration of the compound producing half the maximal effect of the compound) were calculated. The data was presented as mean value (n=2).

[2] = target: T2, human dopamine D2 receptor (Homo sapiens, UniProt P14416); assay: Stimulating activities on human dopamine D2 receptor, [35S]GTPγS binding to hD2R#7 cell membrane homogenates; format: biochemical
T2 construct: accorded to it of human dopamine D2 receptor (NM1-000795) registered on NCBI completely; expressed in transfected cells; membrane homogenates
Procedure: Identification Test of Stimulating Activities on Human Dopamine D2 Receptor
4) Preparation of Membrane Homogenates from hD2R#7 Cells
(2) Preparation of Membrane Homogenates from hD2R#7 Cells
The cells, which were grown to confluence in 150 mm dishes (IWAKI), were harvested with isotonic buffer (50 mM Tris (Sigma), 2 mM ethylenediamine-tetraacetic acid (Invitrogen), and 125 mM sodium chloride (Wako Pure Chemicals), pH 7.4) and centrifuged at 1880×g and 4° C. for 10 minutes, and the cell pellets were then suspended in isotonic buffer. After being subjected to one cycle of freezing and thawing, the cells were centrifuged at 1880×g and 4° C. for 10 minutes, and the cell pellets were suspended in isotonic buffer. The cells were centrifuged at 1880×g and 4° C. for 10 minutes, and the cell pellets were suspended in isotonic buffer and homogenate buffer (10 mM sodium bicarbonate (Nacalai) and 5 mM ethylenediamine-tetraacetic acid, pH 7.5). The volume ratio of isotonic-to-homogenate buffer was 2. The cells were sonicated and centrifuged at 1880×g and 4° C. for 10 minutes, and the supernatants were ultracentrifuged at 80000×g and 4° C. for 30 minutes. The final cell pellets were suspended in homogenate buffer containing protease inhibitor cocktail (Nacalai) and stored at −80° C. until use. The protein concentration was determined using BCA Protein Assay Kit (Pierce) in accordance with the manufacturer's instructions.
5) Determination of Stimulating Activities of Human Dopamine D2 Receptor
The stimulating activities of human dopamine D2 receptor was determined by measuring the binding potential of [^35S]-guanosine 5′-[gamma-thio]triphosphate ([^35S]GTPγS, PerkinElmer) according to the method described by Newman-Tancredi A. et al. (Naunyn-Schmiedeberg's Arch Pharmacol, 1999, vol. 359, pp. 447-453) with a minor modification. Test compounds and dopamine hydrochloride (Fluka) as positive control were dissolved in dimethyl sulfoxide (CARLBIOCHEM), resulting in 30 mM. The both compounds were diluted with assay buffer (50 mM Tris, 100 mM sodium chloride, 5 mM magnesium chloride (Nacalai), 1 mM ethylenediamine-tetraacetic acid, 1 mM dithiothreitol (Wako Pure Chemicals), 10 μM guanosine diphosphate (Wako Pure Chemicals) and 0.5% bovine serum albumin (Sigma), pH 7.4) to a final concentration of 100 pM (only test compounds), 1 nM, 10 nM, 100 nM, 1 μM, 10 μM and 100 μM (only dopamine hydrochloride). The above membrane homogenates and [^35S]GTPγS were diluted with assay buffer to a final concentration of 0.06 mg/mL and 0.6 nM, respectively. The serial diluted compounds (50 μL), the diluted membrane homogenates (50 μL) and the diluted [^35S]GTPγS (50 μL) were mixed on multi-screen 96-well plate (Millipore) and shaken lightly at room temperature for 60 minutes. The reaction was terminated by vacuum filtration with three times washes of ice-cold wash buffer (50 mM Tris, 100 mM sodium chloride, 5 mM magnesium chloride, and 1 mM ethylenediamine-tetraacetic acid, pH 7.4). After drying the bottoms of the plate at 60° C., MicroScinti-40 (PerkinElmer) (30 μL) was added in the plate. The tops of the plate were sealed by TopSeal-A (PerkinElmer), and the radioactivity was determined in a TopCount NXT (registered mark) (PerkinElmer) after shaking lightly for 5-10 minutes. The data was analyzed by nonlinear regression and sigmoidal dose-response curve fitting using GraphPad PRISM 4.0 (GraphPad Software), and values of EC50 (concentration of the compound producing half the maximal effect of the compound) were calculated. The data was presented as mean value (n=2).

[3] = intracellular calcium (Fluo-4), HEK293 cells transiently expressing human 5-HT2B receptor, mean, n=2, read-out: EC50
[4] = [35S]GTPγS binding, membrane homogenates of HEK293 cells stably expressing human D2 receptor, mean, n=2, read-out: EC50

T2 sequence (P14416 whole entry): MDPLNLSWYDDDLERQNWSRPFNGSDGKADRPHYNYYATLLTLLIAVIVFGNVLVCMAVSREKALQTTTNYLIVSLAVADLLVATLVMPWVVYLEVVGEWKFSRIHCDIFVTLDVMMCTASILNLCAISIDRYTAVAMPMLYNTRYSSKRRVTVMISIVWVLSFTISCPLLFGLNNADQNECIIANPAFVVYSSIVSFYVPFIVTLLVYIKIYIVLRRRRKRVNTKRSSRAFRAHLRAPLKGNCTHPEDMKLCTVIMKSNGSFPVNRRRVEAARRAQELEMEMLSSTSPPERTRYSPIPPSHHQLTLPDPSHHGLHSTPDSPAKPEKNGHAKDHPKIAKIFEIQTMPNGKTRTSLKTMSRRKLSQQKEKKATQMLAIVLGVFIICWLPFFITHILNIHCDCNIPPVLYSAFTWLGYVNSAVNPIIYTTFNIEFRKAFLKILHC
T1 sequence (P41595 whole entry): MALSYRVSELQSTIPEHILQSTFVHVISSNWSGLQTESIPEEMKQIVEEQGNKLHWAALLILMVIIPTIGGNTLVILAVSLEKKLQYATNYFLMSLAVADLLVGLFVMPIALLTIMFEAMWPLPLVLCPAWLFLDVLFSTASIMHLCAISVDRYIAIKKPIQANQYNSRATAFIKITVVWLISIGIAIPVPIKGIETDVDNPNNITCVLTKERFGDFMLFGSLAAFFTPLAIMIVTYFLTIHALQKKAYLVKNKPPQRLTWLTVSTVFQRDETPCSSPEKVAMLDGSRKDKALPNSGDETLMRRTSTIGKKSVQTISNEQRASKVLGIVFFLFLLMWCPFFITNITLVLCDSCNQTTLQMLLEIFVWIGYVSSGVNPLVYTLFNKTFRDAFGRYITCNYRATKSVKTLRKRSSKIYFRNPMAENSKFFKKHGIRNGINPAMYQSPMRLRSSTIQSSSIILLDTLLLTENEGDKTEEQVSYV

SMILES | EC50 [1, 3] [nM] | EC50 [2, 4] [nM] | also measured
CCCN(C(=O)NCC(C)(C)CN(C)C)C(=O)[C@@H]1C[C@@H]2Cc3c(sc(N)c3C#N)C[C@H]2N(C)C1 [1-83] | > 10000 | 6 | 
CN(C)CCNC(=O)N(Cc1cccs1)C(=O)[C@@H]1C[C@@H]2Cc3c(sc(N)c3C#N)C[C@H]2N(C)C1 [1-37] |  | 6 | 
CCCN(C(=O)NCCNC)C(=O)[C@@H]1C[C@@H]2Cc3c(sc(N)c3C#N)C[C@H]2N(C)C1 [1-2] | > 10000 | 12 | 
COCCN(C(=O)NCCN1CCCCC1)C(=O)[C@@H]1C[C@@H]2Cc3c(sc(N)c3C#N)C[C@H]2N(C)C1 [1-68] |  | 12 | 
CN(C)CCNC(=O)N(CC1CC1)C(=O)[C@@H]1C[C@@H]2Cc3c(sc(N)c3C#N)C[C@H]2N(C)C1 [1-109, 1-{[(4aR,6R,8aR)-2-amino-3-cyano-8-methyl-4H,4aH,5H,6H,7H,8H,8aH,9H-thieno[3,2-g]quinolin-6-yl]carbonyl}-1-(cyclopropylmethyl)-3-[2-(dimethylamino)ethyl]urea] | > 10000 | 3 | 
CN(C)CCNC(=O)N(CC(C)(C)C)C(=O)[C@@H]1C[C@@H]2Cc3c(sc(N)c3C#N)C[C@H]2N(C)C1 (relative stereo) [1-56, 1-{[(4aR*,6R*,8aR*)-2-amino-3-cyano-8-methyl-4H,4aH,5H,6H,7H,8H,8aH,9H-thieno[3,2-g]quinolin-6-yl]carbonyl}-3-[2-(dimethylamino)ethyl]-1-(2,2-di-methylpropyl)urea] |  | 9 | 
CCCCN(C(=O)NCCN(CC)CC)C(=O)[C@H]1CN[C@@H]2Cc3sc(N)c(C#N)c3C[C@H]2C1 [1-88] |  | 24 | 
C=CCN(C(=O)NCCN(C)C)C(=O)[C@@H]1C[C@@H]2Cc3c(sc(N)c3C#N)C[C@H]2N(C)C1 [1-39] |  | 17 | 
CCN(CC)CCNC(=O)N(CC)C(=O)[C@@H]1C[C@@H]2Cc3c(sc(N)c3C#N)C[C@H]2N(C)C1 [1-105, 1-{[(4aR,6R,8aR)-2-amino-3-cyano-8-methyl-4H,4aH,5H,6H,7H,8H,8aH,9H-thieno[3,2-g]quinolin-6-yl]carbonyl}-3-[2-(diethylamino)ethyl]-1-ethylurea] |  |  | EC50 [1]: > 10000 nM; EC50 [2]: 5 nM
CCN(C(=O)NCc1ccccn1)C(=O)[C@@H]1C[C@@H]2Cc3c(sc(N)c3C#N)C[C@H]2N(C)C1 [1-25] |  |  | EC50 [2]: 15 nM
CCCN1C[C@H](C(=O)N(CCCN(C)C)C(=O)NCC)C[C@@H]2Cc3c(sc(N)c3C#N)C[C@H]21 [1-13] |  | 7 | 
CCCN1C[C@H](CSC)C[C@@H]2c3cccc4[nH]cc(c34)C[C@H]21 [Pergolide, pergolide, reference compound] | 287 |  | 
CCN(C(=O)NCC(CC)(CC)N(C)C)C(=O)[C@@H]1C[C@@H]2Cc3c(sc(N)c3C#N)C[C@H]2N(C)C1 (relative stereo) [1-84, 1-{[(4aR*,6R*,8aR*)-2-amino-3-cyano-8-methyl-4H,4aH,5H,6H,7H,8H,8aH,9H-thieno[3,2-g]quinolin-6-yl]carbonyl}-3-[2-(dimethylamino)-2-ethylbutyl]-1-ethylurea] | > 10000 |  | 
CN(C)CCNC(=O)N(CC1CC1)C(=O)[C@@H]1C[C@@H]2Cc3c(sc(N)c3C#N)C[C@H]2N(C)C1 (single isomer, unassigned) [1-36] |  | 10 | 

More lines, main results first:

EC50 [1, 3] [nM] | EC50 [2, 4] [nM] | SMILES | also measured
 | 14 | CCCCN(C(=O)NCCN1CCN(C)CC1)C(=O)[C@@H]1C[C@@H]2Cc3c(sc(N)c3C#N)C[C@H]2N(C)C1 [1-66] | 
 | 13 | CCN(C(=O)NCCc1ccccc1CCN(C)C)C(=O)[C@@H]1C[C@@H]2Cc3c(sc(N)c3C#N)C[C@H]2N(C)C1 [1-44] | 
> 10000 | 4 | CN(C)CC(C)(C)CNC(=O)N(CC1CC1)C(=O)[C@@H]1C[C@@H]2Cc3c(sc(N)c3C#N)C[C@H]2N(C)C1 [1-104, 1-{[(4aR,6R,8aR)-2-amino-3-cyano-8-methyl-4H,4aH,5H,6H,7H,8H,8aH,9H-thieno[3,2-g]quinolin-6-yl]carbonyl}-1-(cyclopropylmethyl)-3-[3-(dimethylamino)-2,2-dimethyl-propyl]urea] | 
 | 13 | CCN(C(=O)NCCN(C)c1ccccc1)C(=O)[C@@H]1C[C@@H]2Cc3c(sc(N)c3C#N)C[C@H]2N(C)C1 [1-86] | 
 | 11 | CN(C)CCNC(=O)N(CCCC(F)(F)F)C(=O)[C@@H]1C[C@@H]2Cc3c(sc(N)c3C#N)C[C@H]2N(C)C1 [1-61] | 
 | 21 | CCN(C(=O)NCCCOC)C(=O)[C@@H]1C[C@@H]2Cc3c(sc(N)c3C#N)C[C@H]2N(C)C1 [1-21] | 
> 10000 | 4 | CCN(C(=O)NC(C)(C)CN(C)C)C(=O)[C@@H]1C[C@@H]2Cc3c(sc(N)c3C#N)C[C@H]2N(C)C1 [1-106, 1-{[(4aR,6R,8aR)-2-amino-3-cyano-8-methyl-4H,4aH,5H,6H,7H,8H,8aH,9H-thieno[3,2-g]quinolin-6-yl]carbonyl}-3-[1-(dimethylamino)-2-methylpropan-2-yl]-1-ethylurea] | 
> 10000 | 11 | CCNC(=O)N(CCN1CCCC1)C(=O)[C@@H]1C[C@@H]2Cc3c(sc(N)c3C#N)C[C@H]2N(C)C1 [1-6, 1-{[(4aR,6R,8aR)-2-amino-3-cyano-8-methyl-4H,4aH,5H,6H,7H,8H,8aH,9H-thieno[3,2-g]quinolin-6-yl]carbonyl}-3-ethyl-1-[2-(pyrrolidin-1-yl)ethyl]urea] | 
 | 22 | CCCCN(C(=O)NCCN(C)CCO)C(=O)[C@@H]1C[C@@H]2Cc3c(sc(N)c3C#N)C[C@H]2N(C)C1 [1-87] | 
